# In patent US7375124B2, “Use of α-phenylthiocarboxylic and α-phenyloxycarboxylic acids with serum-glucose-lowering and serum-lipid-lowering activity” (Sigma-Tau Industrie Farmaceutiche Riunite S.p.A., priority 2002, dated 2008):
# Experiments:
# PPARγ = target: T1, PPARγ (Mus musculus, UniProt P37238); assay: Transactivation assay mediated by PPARγ in NIH-3T3 cells (CAT reporter); format: cell-based
# T1 construct: expressed in transfected cells; host or cells: NIH-3T3 (mouse embryonal fibroblasts)
# T1 sequence (P37238 1-475 isoform P37238-2): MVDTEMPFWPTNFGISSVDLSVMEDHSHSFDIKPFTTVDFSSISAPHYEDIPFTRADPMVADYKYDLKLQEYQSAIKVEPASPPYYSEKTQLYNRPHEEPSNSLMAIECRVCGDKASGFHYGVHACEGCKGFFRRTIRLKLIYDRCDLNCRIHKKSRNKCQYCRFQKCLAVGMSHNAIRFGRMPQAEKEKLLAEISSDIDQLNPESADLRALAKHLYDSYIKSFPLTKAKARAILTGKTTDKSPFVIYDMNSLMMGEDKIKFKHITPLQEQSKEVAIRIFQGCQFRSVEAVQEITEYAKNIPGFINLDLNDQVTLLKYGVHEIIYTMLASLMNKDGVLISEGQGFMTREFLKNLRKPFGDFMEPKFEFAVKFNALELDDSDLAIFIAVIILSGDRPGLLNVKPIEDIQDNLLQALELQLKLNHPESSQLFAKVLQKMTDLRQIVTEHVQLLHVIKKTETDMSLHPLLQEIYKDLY
# Text: A transactivation assay specific for PPARγ thus requires the simultaneous presence of the following in the preselected cell line: • a) a sufficient amount of PPARγ; • b) a sufficient amount of the 9 cis-retinoic acid receptor (RXR); • c) a chimeric plasmid containing the reporter gene controlled by a PPRE, located upstream of a viral heterologous promoter. In our case the reporter gene is chloramphenicol-acetyl transferase (CAT).
# In the transactivation assay used, the preselected cells are transfected with the expression vector pSG5 Stop-mPPARg1 which allows the synthesis of the PPARγ receptor by the transfected cell. Simultaneously, a plasmid reporter (pBLCAT2-PPRE) is transfected which contains a peroxisome proliferator response element (PPRE) isolated by the gene promoter for acyl-CoA oxidase, upstream of the heterologous promoter of viral thymidine kinase (TK) fused with the reporter gene CAT. Since the endogenous cell levels of the RXR receptor are sufficiently high, it is not necessary to transfect an expression vector specific for RXR as well. […] Therefore, any increase in CAT levels will be the result of increased gene transcription dependent upon the dimerisation of PPARγ with RXR and upon the heterodimer bond formed with the peroxisome proliferator response element. Together with the expression vector and the reporter vector the cells are also transfected with the plasmid pCH110 which provides the internal control for the efficiency of transfection and the normalisation of the results
# A cell line of mouse embryonal fibroblasts (NIH-3T3) was used [Hogan J. C. et al., Biochem Biophys Res Commun. 287 (2), 484-92 (2001)]. The cells were transfected with the reporter plasmid, the expression plasmid coding for the PPARγ receptor and the control vector pCH110. The cells were exposed to increasing concentrations of the study compounds and CAT activity was evaluated. Untreated cells were used as controls.
# Mouse embryonal fibroblasts (NIH-3T3) were cultured according to the usual cell culture techniques, at 37° C. in a 5% v/v carbon dioxide atmosphere using as the growth medium DMEM (Dulbecco's modified Eagle's medium) modified with 3.7 g/l of sodium bicarbonate, 4 mM L-glutamine, 4.5 g/l of glucose, 1 mM sodium pyruvate and 10% v/v of calf serum, in the presence of streptomycin 100 μg/ml and penicillin 100 U/ml final.
# The cells were co-transfected using the transfection reagent FuGENE6 (Roche), already described in the previous example. Twenty-four hours prior to transfection the cells were plated at a density of 8.0×10^4 cells/well in 12-well plates and maintained at 37° C. in a 5% v/v CO2 atmosphere. The culture medium, devoid of serum, was replaced 2 hours before transfection, and then the cells were treated with the transfection reagent FuGENE6, as described in the previous example. After 5 hours, the transfection medium was replaced by 1 ml of culture medium complete with serum and antibiotics in the presence or absence of the molecules to be tested at 3 different concentrations (2, 20 and 100 μM). Rosiglitazone, a known ligand of PPARγ, was used as the positive reference compound.
# The cell protein extracts were prepared and the CAT activity assay was conducted exactly as described in the previous example.
# As an internal control for the normalisation of the CAT activity in relation to the transfection efficiency, β-galactosidase activity coded for by the corresponding gene in the co-transfected plasmid pCH110 was used.
# β-galatosidase activity was measured exactly as described in the previous example.
# For the normalisation of the CAT assay results in relation to […] activity the formula described in the previous example was used.
# mPPARαLBD/Gal4DBD = target: T2, mPPARαLBD/Gal4DBD (Mus musculus, UniProt P23204); assay: Transactivation assay mediated by mPPARαLBD/Gal4DBD in COS-7 cells (CAT reporter); format: cell-based
# T2 construct: expressed in transfected cells; host or cells: COS-7 (monkey kidney fibroblasts)
# T2 sequence (P23204 239-466 limits assumed): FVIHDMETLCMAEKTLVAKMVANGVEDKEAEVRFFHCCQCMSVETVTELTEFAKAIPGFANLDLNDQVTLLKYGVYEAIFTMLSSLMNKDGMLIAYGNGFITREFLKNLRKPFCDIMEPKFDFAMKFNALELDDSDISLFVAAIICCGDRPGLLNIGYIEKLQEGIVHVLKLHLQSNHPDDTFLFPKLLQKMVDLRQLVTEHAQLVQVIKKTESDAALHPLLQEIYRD
# Text: In this model a transactivation assay is used in which the expression vector mPPARαLBD/Gal4 DBD allows the synthesis by the transfected cell of a chimeric protein, in which the ligand binding domain (LBD) of PPARα is fused with the DNA binding domain (DBD) of the transcription factor GAL4 of yeast [Luckow B. et al., Nucleic Acids Res. 15, 5490 (1987)]. Simultaneously, a plasmid (pG5CAT) is transfected which contains 5 copies of the high-affinity binding site for GAL4 (also called UAS, upstream activating sequence), upstream of the viral promoter E1b fused with the CAT reporter gene [Moya-Camarena S. Y. et al., J. Lipid Res. 40 (8), 1426-33 (1999)]. This model eliminates interference by possible endogenous receptors.
# This is due to the fact that the activation of E1b and the production of CAT will occur exclusively thanks to the interaction of GAL4 DBD with its own response element (UAS). Since the transcription factor GAL4 is not expressed in […] cells, transactivation of the reporter gene can take place only when, as a result of the interaction of a ligand with the LBD of PPARα, the chimeric protein PPARα/GAL4 recognises the UAS sequence on the plasmid pG5CAT. Together with the expression vector and the reporter vector the cells were also transfected with the plasmid pCH110 which provides the internal control for the efficiency of transfection and the normalisation of the results.
# A monkey kidney fibroblast cell line (COS-7) was used [Elbrecht A. et al., J. Biol. Chem. 274 (12), 7913-22 (1999)]. The cells were co-transfected with the reporter vector, the expression plasmid coding for the fusion protein Gal4 DBD/PPARαLBD and the control vector pCH110. The cells were exposed to increasing concentrations of the study compounds and CAT activity was evaluated. Untreated cells were used as controls.
# Monkey kidney fibroblasts (COS-7) were cultured according to the usual cell culture techniques, at 37° C. in a 5% v/v carbon dioxide atmosphere using as the growth medium DMEM (Dulbecco's modified Eagle's medium) modified with 3.7 g/l of sodium bicarbonate, 4 mM L-glutamine, 4.5 g/l of glucose, 1 mM sodium pyruvate and 10% v/v of foetal bovine serum, in the presence of streptomycin 100 μg/ml and penicillin 100 U/ml final.
# The cells were co-transfected using the transfection reagent FuGENE6 (Roche), consisting of a defined mixture of lipids capable of complexing the DNA and of transporting it into the cells. Twenty-four hours prior to transfection the cells were plated at a density of 1.2×10^5 cells/well in 12-well plates and maintained at 37° C. in a 5% v/v CO2 atmosphere. […] Briefly, the transfection mixture containing 0.8 μg of the expression vector, 1.6 μg of the reporter vector, 0.8 μg of the control vector and 9 μl of the FuGENE6 reagent per well was added directly to the cells in the presence of culture medium devoid of serum. After 5 hours, the transfection medium was replaced by 1 ml of culture medium complete with serum and antibiotics in the presence or absence of the molecules to be tested at 3 different concentrations (2, 20 and 100 μM). Wy-14,643 (2 μM), a known ligand of PPARα, was used as the positive reference compound.
# After 48 hours' incubation at 37° C. in a 5% v/v CO2 atmosphere, the cells were washed twice with 1 ml of phosphate buffer (PBS) and removed mechanically from the wells in TEN buffer (Tris[hydroxymethyl]aminomethane 10 mM pH 8, ethylenediamine-tetraacetic acid 1 mM pH 8, sodium chloride 0.1 M). After centrifuging for 3 minutes at 1000 rpm, the cells were resuspended in 65 μl of lysis buffer (Tris-HCl 0.25 M, pH 8) and then lysed thanks to three rapid freeze-thaw cycles. The insoluble cellular materials (debris) were removed by centrifuging at 15,000 rpm for 15 minutes at 4° C., and the supernatant was recovered and used for the CAT and β-galactosidase activity assays. […]
Activation of the gene-reporter CAT as a percentage of the reference compound (rosiglitazone 2 μM = 100%) (PPARγ; 2 μM) [%],Activation of the gene-reporter CAT as a percentage of the reference compound (rosiglitazone 2 μM = 100%) (PPARγ; 20 μM) [%],Activation of the gene-reporter CAT as a percentage of the reference compound (rosiglitazone 2 μM = 100%) (PPARγ; 100 μM) [%],"Activation of reporter gene CAT as a percentage of the reference compound (WY-14,643 2 μM = 100%) (mPPARαLBD/Gal4DBD; 2 μM) [%]","Activation of reporter gene CAT as a percentage of the reference compound (WY-14,643 2 μM = 100%) (mPPARαLBD/Gal4DBD; 20 μM) [%]","Activation of reporter gene CAT as a percentage of the reference compound (WY-14,643 2 μM = 100%) (mPPARαLBD/Gal4DBD; 100 μM) [%]",SMILES
61.6,91.6,101,132.3,199.3,203.8,"CC(C)(Sc1cccc(OCCc2ccc(Cl)cc2Cl)c1)C(=O)O [Example 13, 2-[3-(2-(2,4-dichlorophenyl)ethoxy)phenylthio]-2-methylpropanoic acid]"
25,67,82.2,85,96.4,151.9,"CC(C)(Sc1cccc(OCCc2ccc3ccccc3c2)c1)C(=O)O [Example 18, 2-[3-[2-(2-naphthyl)ethoxy]phenylthio]-2-methylpropanoic acid]"
